Source: patent publication US12668600B2 (Kumquat Biosciences Inc., priority 2023, dated 2026)

Assays:
Assay type in all cases: biochemical
KRAS G12V = target: T1, KRAS G12V (Homo sapiens, UniProt P01116, G12V); test: HTRF KRAS-SOS1 interaction assay, KRAS G12V; conditions: binned ≤2 μM / >2 μM, read-out: Inhibition of KRAS G12V (IC50)
T1 construct: made in house; host or cells: E. coli, e.g. BL21 (DE3)
How it was run: (§1)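 GST-tagged KRAS (WT or mutant) with anti-GST-Eu donor and His-hSOS1 with anti-6His-XL665 acceptor were combined in 5 mM HEPES pH 7.4, 150 mM NaCl, 1 mM DTT, 0.05% BSA, 0.0025% Igepal. After ~10 min, HTRF was read (ex 337, em 620/665 nm); IC50 from 665/620 ratio.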

KRAS G12S = target: T2, KRAS G12S (Homo sapiens, UniProt P01116, G12S); test: HTRF KRAS-SOS1 interaction assay, KRAS G12S; conditions: binned ≤2 μM / >2 μM, read-out: Inhibition of KRAS G12S (IC50)
T2 construct: made in house; host or cells: E. coli, e.g. BL21 (DE3)
T2 sequence (P01116 1-188 isoform P01116-2 G12S): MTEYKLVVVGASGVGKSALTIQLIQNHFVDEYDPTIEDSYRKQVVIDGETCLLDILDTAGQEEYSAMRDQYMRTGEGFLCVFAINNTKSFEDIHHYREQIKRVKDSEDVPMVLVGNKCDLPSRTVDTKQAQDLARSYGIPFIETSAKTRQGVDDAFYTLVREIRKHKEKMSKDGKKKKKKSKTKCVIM
How it was run: as §1

KRAS WT = target: T3, KRAS WT (Homo sapiens, UniProt P01116); test: HTRF KRAS-SOS1 interaction assay, wildtype KRAS; conditions: binned ≤2 μM / >2 μM, read-out: Inhibition of KRAS WT (IC50)
T3 construct: made in house; host or cells: E. coli, e.g. BL21 (DE3)
T3 sequence (P01116 1-188 isoform P01116-2): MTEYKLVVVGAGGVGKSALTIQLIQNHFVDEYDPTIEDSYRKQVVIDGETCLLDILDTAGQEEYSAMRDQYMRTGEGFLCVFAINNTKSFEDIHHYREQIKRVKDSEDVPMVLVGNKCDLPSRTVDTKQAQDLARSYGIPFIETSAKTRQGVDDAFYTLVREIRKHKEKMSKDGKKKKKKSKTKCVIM
How it was run: as §1

KRAS G12D = target: T4, KRAS G12D (Homo sapiens, UniProt P01116, G12D); test: HTRF KRAS-SOS1 interaction assay, KRAS G12D; conditions: binned ≤2 μM / >2 μM, read-out: Inhibition of KRAS G12D (IC50)
T4 construct: made in house; host or cells: E. coli, e.g. BL21 (DE3)
T4 sequence (P01116 1-188 isoform P01116-2 G12D): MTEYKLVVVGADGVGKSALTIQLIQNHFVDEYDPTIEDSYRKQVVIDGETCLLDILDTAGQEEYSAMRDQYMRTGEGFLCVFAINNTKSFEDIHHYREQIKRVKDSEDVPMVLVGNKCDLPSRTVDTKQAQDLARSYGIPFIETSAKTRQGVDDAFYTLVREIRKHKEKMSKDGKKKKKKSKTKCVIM
How it was run: as §1

T1 sequence (P01116 1-188 isoform P01116-2 G12V): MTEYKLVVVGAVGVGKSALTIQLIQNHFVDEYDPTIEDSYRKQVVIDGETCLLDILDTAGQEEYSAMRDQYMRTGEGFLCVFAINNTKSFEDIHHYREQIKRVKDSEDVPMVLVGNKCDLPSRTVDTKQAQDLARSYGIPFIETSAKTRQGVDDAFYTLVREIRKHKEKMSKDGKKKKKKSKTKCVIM

C[C@H](c1cccnc1N)N1CCOc2c(C3CC3)c(-c3ccc(F)c4sc(N)c(C#N)c34)c(F)c3nc(OC[C@@]45CCCN4C[C@H](F)C5)nc1c23 (single isomer, unassigned) [Compound 727]
IC50 (KRAS G12V): ≤ 2 µM | IC50 (KRAS G12S): ≤ 2 µM | IC50 (KRAS WT): ≤ 2 µM | IC50 (KRAS G12D): ≤ 2 µM

C[C@H](c1cc(C(F)(F)F)cnc1N)N1CCOc2c(Cl)c(-c3ccc(F)c4sc(N)c(C#N)c34)c(F)c3nc(OC[C@@]45CCCN4C[C@H](F)C5)nc1c23 [Compound 869, 2-amino-4-(4-((R)-1-(2-amino-5-(trifluoromethyl)pyridin-3-yl)ethyl)-8-chloro-10-fluoro-2-(((2R,7aS)-2-fluorotetrahydro-1H-pyrrolizin-7a(5H)-yl)methoxy)-5,6-dihydro-4H-[1,4]oxazepino[5,6,7-de]quinazolin-9-yl)-7-fluorobenzo[b]thiophene-3-carbonitrile]
IC50 (KRAS G12V): ≤ 2 µM | IC50 (KRAS G12S): ≤ 2 µM | IC50 (KRAS WT): ≤ 2 µM | IC50 (KRAS G12D): ≤ 2 µM

C[C@H](c1cccnc1F)N1CCOc2c(C(F)(F)F)c(-c3ccc(F)c4sc(N)c(C#N)c34)c(F)c3nc(OC[C@@]45CCCN4C[C@H](F)C5)nc1c23 [Compound 817, 2-amino-7-fluoro-4-(10-fluoro-4-((R)-1-(2-fluoropyridin-3-yl)ethyl)-2-(((2R,7aS)-2-fluorotetrahydro-1H-pyrrolizin-7a(5H)-yl)methoxy)-8-(trifluoromethyl)-5,6-dihydro-4H-[1,4]oxazepino[5,6,7-de]quinazolin-9-yl)benzo[b]thiophene-3-carbonitrile]
IC50 (KRAS G12V): ≤ 2 µM | IC50 (KRAS G12S): ≤ 2 µM | IC50 (KRAS WT): ≤ 2 µM | IC50 (KRAS G12D): ≤ 2 µM

N#Cc1c(N)sc2c(F)ccc(-c3c(C(F)(F)F)c4c5c(nc(OC[C@@]67CCCN6CC(=C(F)F)C7)nc5c3F)N([C@H](CCC(F)(F)F)c3cccnc3N)CCO4)c12 [Compound 666, 2-amino-4-(4-((R)-1-(2-aminopyridin-3-yl)-4,4,4-trifluorobutyl)-2-(((S)-2-(difluoromethylene)tetrahydro-1H-pyrrolizin-7a(5H)-yl)methoxy)-10-fluoro-8-(trifluoromethyl)-5,6-dihydro-4H-[1,4]oxazepino[5,6,7-de]quinazolin-9-yl)-7-fluorobenzo[b]thiophene-3-carbonitrile]
IC50 (KRAS G12V): ≤ 2 µM | IC50 (KRAS G12S): ≤ 2 µM | IC50 (KRAS WT): ≤ 2 µM | IC50 (KRAS G12D): ≤ 2 µM

CO[C@H]1CCN(C)[C@@H]1[C@H](C)Oc1nc2c3c(c(C(F)(F)F)c(-c4ccc(F)c5sc(N)c(C#N)c45)c(F)c3n1)OCCN2[C@H](C)c1cccnc1N [Compound 665, 2-amino-4-(4-((R)-1-(2-aminopyridin-3-yl)ethyl)-10-fluoro-2-((S)-1-((2R,3S)-3-methoxy-1-methylpyrrolidin-2-yl)ethoxy)-8-(trifluoromethyl)-5,6-dihydro-4H-[1,4]oxazepino[5,6,7-de]quinazolin-9-yl)-7-fluorobenzo[b]thiophene-3-carbonitrile]
IC50 (KRAS G12V): ≤ 2 µM | IC50 (KRAS G12S): ≤ 2 µM | IC50 (KRAS WT): ≤ 2 µM | IC50 (KRAS G12D): ≤ 2 µM

C[C@H](c1cccnc1N)N1CCOc2c(C(F)(F)F)c(-c3ccc(F)c4sc(N)c(C#N)c34)c(F)c3nc(OCC4(CN5[C@H](C)COC[C@@H]5C)CC4)nc1c23 (single isomer, unassigned) [Compound 719]
IC50 (KRAS G12V): > 2 µM | IC50 (KRAS G12S): > 2 µM | IC50 (KRAS WT): > 2 µM | IC50 (KRAS G12D): > 2 µM

CCN(CC)CCC[C@H](c1cccnc1N)N1CCOc2c(C(F)(F)F)c(-c3ccc(F)c4sc(NC)c(C#N)c34)c(F)c3nc(OC[C@@]45CCCN4C[C@H](F)C5)nc1c23 (single isomer, unassigned) [Compound 832]
IC50 (KRAS G12V): ≤ 2 µM | IC50 (KRAS G12S): ≤ 2 µM | IC50 (KRAS WT): ≤ 2 µM | IC50 (KRAS G12D): ≤ 2 µM

CC[C@H](c1cc(F)cnc1N)N1CCOc2c(C(F)(F)F)c(-c3ccc(F)c4sc(N)c(C#N)c34)c(F)c3nc(OC[C@@]45CCCN4C[C@H](F)C5)nc1c23 [Compound 870, 2-amino-4-(4-((R)-1-(2-amino-5-fluoropyridin-3-yl)propyl)-10-fluoro-2-(((2R,7aS)-2-fluorotetrahydro-1H-pyrrolizin-7a(5H)-yl)methoxy)-8-(trifluoromethyl)-5,6-dihydro-4H-[1,4]oxazepino[5,6,7-de]quinazolin-9-yl)-7-fluorobenzo[b]thiophene-3-carbonitrile]
IC50 (KRAS G12V): ≤ 2 µM | IC50 (KRAS G12S): ≤ 2 µM | IC50 (KRAS WT): ≤ 2 µM | IC50 (KRAS G12D): ≤ 2 µM

C#C[C@H](c1cccnc1N)N1CCOc2c(Cl)c(-c3ccc(F)c4sc(N)c(C#N)c34)c(F)c3nc(OC[C@@]45CCCN4C[C@H](F)C5)nc1c23 [Compound 904, 2-amino-4-(4-((R)-1-(2-aminopyridin-3-yl)prop-2-yn-1-yl)-8-chloro-10-fluoro-2-(((2R,7aS)-2-fluorotetrahydro-1H-pyrrolizin-7a(5H)-yl)methoxy)-5,6-dihydro-4H-[1,4]oxazepino[5,6,7-de]quinazolin-9-yl)-7-fluorobenzo[b]thiophene-3-carbonitrile]
IC50 (KRAS G12V): ≤ 2 µM | IC50 (KRAS G12S): ≤ 2 µM | IC50 (KRAS WT): ≤ 2 µM | IC50 (KRAS G12D): ≤ 2 µM

CON=C1CN2CCC[C@@]2(COc2nc3c4c(c(C(F)(F)F)c(-c5ccc(F)c6sc(N)c(C#N)c56)c(F)c4n2)OCCN3[C@H](C)c2cccnc2N)C1 (mixture of isomers) [Compound 622, 2-amino-4 ((S)-4-((R)-1-(2-aminopyridin-3-yl)ethyl)-10-fluoro-2-(((S)-2-(methoxyimino)tetrahydro-1H-pyrrolizin-7a (5H)-yl)methoxy)-8-(trifluoromethyl)-5,6-dihydro-4H-[1,4]oxazepino[5,6,7-de]quinazolin-9-yl)-7-fluorobenzo[b]thiophene-3-carbonitrile]
IC50 (KRAS G12V): ≤ 2 µM | IC50 (KRAS G12S): ≤ 2 µM | IC50 (KRAS WT): ≤ 2 µM | IC50 (KRAS G12D): ≤ 2 µM

C[C@H](Oc1nc2c3c(c(Cl)c(-c4ccc(F)c5sc(N)c(C#N)c45)c(F)c3n1)OCCN2[C@H](C)c1cccnc1N)[C@@H]1CCCN1C (single isomer, unassigned) [Compound 633]
IC50 (KRAS G12V): ≤ 2 µM | IC50 (KRAS G12S): ≤ 2 µM | IC50 (KRAS WT): ≤ 2 µM | IC50 (KRAS G12D): ≤ 2 µM

C[C@H](c1cccnc1N)N1CCOc2c(Cl)c(-c3ncc(F)c4sc(N)c(C#N)c34)c(F)c3nc(OC[C@@]45CCCN4C[C@H](F)C5)nc1c23 (single isomer, unassigned) [Compound 825]
IC50 (KRAS G12V): ≤ 2 µM | IC50 (KRAS G12S): ≤ 2 µM | IC50 (KRAS WT): ≤ 2 µM | IC50 (KRAS G12D): ≤ 2 µM

C[C@H](c1cccnc1N)N1CCOc2c(Cl)c(-c3ccc(F)c4sc(N)c(C#N)c34)c(F)c3nc(OC[C@@H]4CCCN4C)nc1c23 (single isomer, unassigned) [Compound 641]
IC50 (KRAS G12V): ≤ 2 µM | IC50 (KRAS G12S): ≤ 2 µM | IC50 (KRAS WT): ≤ 2 µM | IC50 (KRAS G12D): ≤ 2 µM

C=CC(F)(F)[C@@H](c1cccnc1N)N1CCOc2c(Cl)c(-c3ccc(F)c4sc(N)c(C#N)c34)c(F)c3nc(OC[C@@]45CCCN4C[C@H](F)C5)nc1c23 [Compound 834, 2-amino-4-(4-((R)-1-(2-aminopyridin-3-yl)-2,2-difluorobut-3-en-1-yl)-8-chloro-10-fluoro-2-(((2R,7aS)-2-fluorotetrahydro-1H-pyrrolizin-7a(5H)-yl)methoxy)-5,6-dihydro-4H-[1,4]oxazepino[5,6,7-de]quinazolin-9-yl)-7-fluorobenzo[b]thiophene-3-carbonitrile]
IC50 (KRAS G12V): ≤ 2 µM | IC50 (KRAS G12S): ≤ 2 µM | IC50 (KRAS WT): ≤ 2 µM | IC50 (KRAS G12D): > 2 µM

C[C@H](c1nccnc1N)N1CCOc2c(C(F)(F)F)c(-c3ccc(F)c4sc(N)c(C#N)c34)c(F)c3nc(OC[C@@]45CCCN4C[C@@]4(CC4(F)F)C5)nc1c23 [Compound 773, 2-amino-4-(4-((R)-1-(3-aminopyrazin-2-yl)ethyl)-2-(((1S,7a′S)-2,2-difluorodihydro-1′H,3′H-spiro[cyclopropane-1,2′-pyrrolizin]-7a′(5′H)-yl)methoxy)-10-fluoro-8-(trifluoromethyl)-5,6-dihydro-4H-[1,4]oxazepino[5,6,7-de]quinazolin-9-yl)-7-fluorobenzo[b]thiophene-3-carbonitrile]
IC50 (KRAS G12V): ≤ 2 µM | IC50 (KRAS G12S): ≤ 2 µM | IC50 (KRAS WT): ≤ 2 µM | IC50 (KRAS G12D): ≤ 2 µM

C=C1CN2CCC[C@@]2(COc2nc3c4c(c(C(F)(F)F)c(-c5ccc(F)c6sc(N)c(C#N)c56)c(F)c4n2)OCCN3[C@H](C)c2cc(Cl)cnc2N)C1 [Compound 690, 2-amino-4-(4-((R)-1-(2-amino-5-chloropyridin-3-yl)ethyl)-10-fluoro-2-(((S)-2-methylenetetrahydro-1H-pyrrolizin-7a(5H)-yl)methoxy)-8-(trifluoromethyl)-5,6-dihydro-4H-[1,4]oxazepino[5,6,7-de]quinazolin-9-yl)-7-fluorobenzo[b]thiophene-3-carbonitrile]
IC50 (KRAS G12V): ≤ 2 µM | IC50 (KRAS G12S): ≤ 2 µM | IC50 (KRAS WT): ≤ 2 µM | IC50 (KRAS G12D): ≤ 2 µM

CO[C@H]1CCN(C)[C@@H]1COc1nc2c3c(c(C(F)(F)F)c(-c4ccc(F)c5sc(N)c(C#N)c45)c(F)c3n1)OCCN2[C@H](C)c1cc(F)cnc1N (single isomer, unassigned) [Compound 774]
IC50 (KRAS G12V): ≤ 2 µM | IC50 (KRAS G12S): ≤ 2 µM | IC50 (KRAS WT): ≤ 2 µM | IC50 (KRAS G12D): ≤ 2 µM

C=C1CN2CC(=C)CC2(COc2nc3c4c(c(C(F)(F)F)c(-c5ccc(F)c6sc(N)c(C#N)c56)c(F)c4n2)OCCN3[C@H](C)c2cccnc2N)C1 (single isomer, unassigned) [Compound 775]
IC50 (KRAS G12V): ≤ 2 µM | IC50 (KRAS G12S): ≤ 2 µM | IC50 (KRAS WT): ≤ 2 µM | IC50 (KRAS G12D): ≤ 2 µM
